# Experimental data: PMC8504577, “Evaluation of a Clinically Relevant Drug–Drug Interaction Between Rosuvastatin and Clopidogrel and the Risk of Hepatotoxicity” (Frontiers in Pharmacology, 2021)
# Where two headings read alike, the source gives them in different places.
# Experiments:
# [1] = for I2, maximal theoretical gastrointestinal concentration: dose/250 ml; for Imax,u, unbound steady-state plasma peak concentration: fu×I1
# BCRP [2] = biological target: T1, BCRP (Homo sapiens, UniProt Q9UNQ0); details: CP at 75 and 300 mg
# T1 sequence (Q9UNQ0 1-655): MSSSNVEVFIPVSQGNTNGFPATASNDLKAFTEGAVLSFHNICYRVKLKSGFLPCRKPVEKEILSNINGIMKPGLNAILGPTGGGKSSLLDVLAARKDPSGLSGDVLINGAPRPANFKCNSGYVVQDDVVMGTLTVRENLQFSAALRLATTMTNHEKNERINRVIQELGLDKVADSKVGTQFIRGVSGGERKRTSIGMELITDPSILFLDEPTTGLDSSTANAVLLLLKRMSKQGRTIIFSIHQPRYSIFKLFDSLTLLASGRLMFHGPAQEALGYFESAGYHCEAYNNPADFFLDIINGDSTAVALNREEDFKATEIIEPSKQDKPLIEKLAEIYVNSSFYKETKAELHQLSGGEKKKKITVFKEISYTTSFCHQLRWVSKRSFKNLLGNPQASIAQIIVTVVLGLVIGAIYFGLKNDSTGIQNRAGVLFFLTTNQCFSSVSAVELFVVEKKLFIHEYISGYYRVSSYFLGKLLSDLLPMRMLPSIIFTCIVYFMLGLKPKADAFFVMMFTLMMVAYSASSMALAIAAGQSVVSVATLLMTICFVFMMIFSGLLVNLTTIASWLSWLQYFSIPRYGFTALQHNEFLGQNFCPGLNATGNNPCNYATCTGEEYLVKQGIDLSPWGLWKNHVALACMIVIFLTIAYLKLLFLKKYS
# OATP1B1 [3] = details: cited from earlier work
# BCRP [4] = biological target: T1, BCRP; test: Inhibition of RSV transport in BCRP-expressing membrane vesicles; type: biochemical; set-up: purchased GenoMembrane Co., Ltd. (Yokohama, Japan) GM0008; host or cells: Sf9 insect cells
# Experimental: (§1) The vesicular transport activity was determined by the 96-well rapid filtration method in BCRP- and MRP2-expressing membrane vesicles. […] Meanwhile, 5 μL RSV (final concentration, 1 μM) and 20 μL reagent C2 were pre-incubated at 37°C for 5 min. Then, the transport was initiated by mixing them in a 50 μL reaction system and incubated for the designated time at 37°C. The transport was terminated by adding 200 μL of cold buffer B2 at 4°C. Then, the mixture was filtered using a 96-well filter plate. After washing the vesicles five times with 200 μL of cold buffer B2 at 4°C, the vesicles were lysed with 50 μL of 80% […] twice and then centrifuged at 2000 rpm/min for 2 min. Lysates were collected and then centrifuged at 12,000 rpm/min for 5 min. The supernatants were injected onto the LC-MS/MS. The same procedures were applied to AMP-containing samples except that reagent D2 was used instead of reagent C2. All experiments were performed in quadruplicate.
# Statistical analysis was performed using SPSS ver. 22.0 (IBM, Chicago, IL, United States).
# MRP2 = biological target: T2, MRP2 (Homo sapiens, UniProt Q92887); test: RSV uptake into MRP2-expressing membrane vesicles; type: biochemical; details: ATP vs AMP; data not shown
# T2 construct: purchased GenoMembrane Co., Ltd. (Yokohama, Japan) GM0001
# T2 sequence (Q92887 whole entry): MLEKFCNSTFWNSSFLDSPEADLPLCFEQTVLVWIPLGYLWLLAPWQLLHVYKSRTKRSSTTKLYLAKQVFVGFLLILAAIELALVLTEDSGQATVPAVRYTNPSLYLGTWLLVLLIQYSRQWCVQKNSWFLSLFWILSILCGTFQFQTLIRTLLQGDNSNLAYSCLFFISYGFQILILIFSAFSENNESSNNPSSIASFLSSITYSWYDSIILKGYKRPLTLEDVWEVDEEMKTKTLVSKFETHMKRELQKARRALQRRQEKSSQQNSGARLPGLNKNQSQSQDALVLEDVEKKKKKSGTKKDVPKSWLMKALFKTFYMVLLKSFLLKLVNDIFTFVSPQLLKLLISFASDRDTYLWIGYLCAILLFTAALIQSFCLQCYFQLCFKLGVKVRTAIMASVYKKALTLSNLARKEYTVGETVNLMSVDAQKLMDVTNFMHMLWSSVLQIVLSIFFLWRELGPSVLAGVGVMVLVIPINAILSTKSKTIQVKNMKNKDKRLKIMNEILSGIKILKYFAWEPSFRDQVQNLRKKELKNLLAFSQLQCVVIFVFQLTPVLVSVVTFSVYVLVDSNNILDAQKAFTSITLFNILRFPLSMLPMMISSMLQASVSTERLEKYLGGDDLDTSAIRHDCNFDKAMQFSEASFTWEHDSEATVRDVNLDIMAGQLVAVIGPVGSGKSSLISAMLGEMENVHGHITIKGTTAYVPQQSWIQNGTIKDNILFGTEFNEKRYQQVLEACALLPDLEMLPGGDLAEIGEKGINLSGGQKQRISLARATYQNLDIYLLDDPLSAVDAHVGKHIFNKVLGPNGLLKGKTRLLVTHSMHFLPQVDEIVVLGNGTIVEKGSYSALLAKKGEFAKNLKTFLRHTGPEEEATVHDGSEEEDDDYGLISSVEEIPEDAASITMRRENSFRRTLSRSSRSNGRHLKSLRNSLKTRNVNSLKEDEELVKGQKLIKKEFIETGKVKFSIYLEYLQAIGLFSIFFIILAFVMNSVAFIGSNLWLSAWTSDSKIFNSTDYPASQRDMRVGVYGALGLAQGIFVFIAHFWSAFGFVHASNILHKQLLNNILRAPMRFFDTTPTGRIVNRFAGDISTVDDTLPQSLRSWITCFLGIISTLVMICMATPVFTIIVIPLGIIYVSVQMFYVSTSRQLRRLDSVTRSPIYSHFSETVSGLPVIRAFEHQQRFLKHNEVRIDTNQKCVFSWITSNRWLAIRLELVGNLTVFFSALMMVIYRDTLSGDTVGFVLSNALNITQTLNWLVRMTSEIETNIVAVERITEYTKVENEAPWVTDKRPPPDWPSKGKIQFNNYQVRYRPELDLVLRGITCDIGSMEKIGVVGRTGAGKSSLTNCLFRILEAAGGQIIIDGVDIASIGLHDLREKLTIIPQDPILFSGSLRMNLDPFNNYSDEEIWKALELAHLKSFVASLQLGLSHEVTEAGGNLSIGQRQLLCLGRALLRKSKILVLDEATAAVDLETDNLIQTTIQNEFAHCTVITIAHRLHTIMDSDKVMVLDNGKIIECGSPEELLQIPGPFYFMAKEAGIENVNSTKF
# Experimental: as §1
# [5] = Hepatobiliary transport study in rats; type: in vivo, Sprague-Dawley rats; details: for Tmax / Kp / Cmax / AUC(0-t): Sprague-Dawley, rat; for Tmax / Cmax / AUC(0-t): 5 mg/kg; for Kp: liver/plasma, read-out: Liver AUC0-5min/Plasma AUC0-5min; for AUC(0-t): read-out: Plasma AUC0-5min (converted); for CLint,bile / CLuptake,liver: integration plot method
# Experimental: For the hepatobiliary transport study, 24 rats were randomly assigned into eight groups (n = 3, each group, groups V to XII) and they received a p.o. dose as oral gavage of CP (27 mg/kg) for 20 days. The remaining 24 rats were also randomly assigned into eight groups (n = 3, each group, groups XIII to XX) and received the same volume of vehicle control for 20 days. […] On day 21, rats were anesthetized and incised along the abdominal midline, and bile duct intubation was performed prior to drug administration. […] Rats were euthanized at 0.25, 0.47, 0.67, 1, 1.5, 2, 2.5, and 5 min post dose. Arterial blood, bile, and liver samples were collected.
# Supplementary Table 2. Pharmacokinetic parameters of hepatobiliary transport study in rats. (n= 3) RSV CLuptake,liver and CLint,bile were calculated by integration plot methods.^[1, 2]
# rats = test: Biochemical examination of liver function indices in rats; type: in vivo, Sprague-Dawley rats; details: rat plasma
# Excerpt: After the last sample in the plasma pharmacokinetic study, all rats were deeply anesthetized and exsanguinated by severing the abdominal aorta. Blood and liver samples were harvested. The plasma was used for the assay of alanine aminotransferase (ALT), aspartate aminotransferase (AST), total bilirubin (TBIL), unconjugated bilirubin (IBIL), and conjugated bilirubin (DBIL) by an automatic analyzer (Beckman Coulter, Brea, CA, United States).
# OATP1B1 [6] = test system: OATP1B1; set-up: method as in Elsby et al., 2016; details: ref Elsby et al., 2016; cited from earlier work
# [7] = test system: sodium taurocholate cotransporting polypeptide (NTCP); details: ref Elsby et al., 2016; cited from earlier work
# [8] = plasma, iv, i.v. RSV 5 mg/kg, with DDI (multiple p.o. CP 27 mg/kg)
# [9] = plasma, iv, i.v. RSV 5 mg/kg, without DDI
# [10] = i.v. RSV 5 mg/kg, with DDI (multiple p.o. CP 27 mg/kg)
# [11] = Group II single i.v. dose RSV + vehicle control
# [12] = Group IV single p.o. dose RSV + vehicle control
smiles,measurement,setting,value
"COC(=O)[C@H](c1ccccc1Cl)N1CCc2sccc2C1 [CP, clopidogrel]","Iin,max,u, steady-state unbound liver inlet concentration",[1]; 75 mg CP,0.31 µM
same,"I2, maximal theoretical gastrointestinal concentration",[1]; 75 mg CP,932.19 µM
same,"Imax,u, unbound steady-state plasma peak concentration",[1]; 75 mg CP,0.00002 µM
same,"Iin,max,u, steady-state unbound liver inlet concentration",[1]; 300 mg CP,1.24 µM
same,"I2, maximal theoretical gastrointestinal concentration",[1]; 300 mg CP,"3,728.77 μM"
same,"Imax,u, unbound steady-state plasma peak concentration",[1]; 300 mg CP,0.00018 µM
same,[I2]/IC50 BCRP ratio,BCRP [2],> 10
same,IC50,"OATP1B1 [3]; substrate cerivastatin, ref Tamraz et al. (2013), read-out: IC50 OTAP1B1 (cerivastatin, CER, as substrate)",3.95 µM
same,IC50,"OATP1B1 [3]; substrate estradiol 17β-glucuronide, ref Elsby et al. (2016), read-out: IC50 OTAP1B1 (estradiol 17β-glucuronide, e17βG, as substrate)",1.8 µM
same,IC50,"BCRP [4]; IC50 BCRP-mediated RSV transport, 1 μM RSV, membrane vesicles",~0.001 µM
same,inhibition at 0.001 μM,BCRP [4]; human,56.9%
"CC(C)c1nc(N(C)S(C)(=O)=O)nc(-c2ccc(F)cc2)c1/C=C/[C@@H](O)C[C@@H](O)CC(=O)O [RSV, rosuvastatin]",Uptake ratio into MRP2-expressing membrane vesicles,MRP2,less than 2
same,Tmax,"[5]; liver, iv, i.v. RSV 5 mg/kg, with DDI (multiple p.o. CP 27 mg/kg), read-out: Liver Tmax (converted)",1.72 min
same,Tmax,"[5]; liver, iv, i.v. RSV 5 mg/kg, without DDI, read-out: Liver Tmax (converted)",2 min
same,Kp,"[5]; intravenous, i.v. RSV 5 mg/kg, with DDI (multiple p.o. CP 27 mg/kg)",1.38 ± 0.13
same,Kp,"[5]; iv, i.v. RSV 5 mg/kg, without DDI",1.72 ± 0.18
same,Cmax,[5]; [8],56 ± 9.15 µg/mL
same,AUC(0-t),[5]; [8],1710 ng·h/mL
same,Tmax,"[5]; plasma, iv, i.v. RSV 5 mg/kg, with DDI (multiple p.o. CP 27 mg/kg), read-out: Plasma Tmax (converted)",0.36 min
same,Cmax,[5]; [9],62.1 ± 24.2 µg/mL
same,AUC(0-t),[5]; [9],1190 ng·h/mL
same,Tmax,"[5]; plasma, iv, i.v. RSV 5 mg/kg, without DDI, read-out: Plasma Tmax (converted)",0.31 min
same,Bile0-5min (with DDI/without DDI)%,[5]; i.v. RSV 5 mg/kg,84.95%
same,Bile0-5min/Liver AUC0-5min (with DDI/without DDI)%,[5]; i.v. RSV 5 mg/kg,73.81%
same,"CLint,bile (with DDI/without DDI)%",[5]; i.v. RSV 5 mg/kg,60.81%
same,"CLuptake,liver (with DDI/without DDI)%",[5]; i.v. RSV 5 mg/kg,47.62%
same,Liver AUC0-5min (with DDI/without DDI)%,[5]; i.v. RSV 5 mg/kg,115.37%
same,Liver AUC0-5min/Plasma AUC0-5min (with DDI/without DDI)%,[5]; i.v. RSV 5 mg/kg,80.23%
same,Liver Cmax (with DDI/without DDI)%,[5]; i.v. RSV 5 mg/kg,94.79%
same,Liver Tmax (with DDI/without DDI)%,[5]; i.v. RSV 5 mg/kg,86.00%
same,Plasma AUC0-5min (with DDI/without DDI)%,[5]; i.v. RSV 5 mg/kg,143.73%
same,Plasma Cmax (with DDI/without DDI)%,[5]; i.v. RSV 5 mg/kg,90.18%
same,Plasma Tmax (with DDI/without DDI)%,[5]; i.v. RSV 5 mg/kg,116.13%
same,Bile0-5min,[5]; [10],218.80 ± 138.59 µg
same,Bile0-5min/Liver AUC0-5min,[5]; [10],1.55 ± 0.98 g/min
same,Liver AUC0-5min,[5]; [10],141196.71 ± 13631.53 ng·min/g
same,Liver Cmax,[5]; [10],36840.00 ± 1304.15 ng/g
same,"CLint,bile",[5]; [10],1.80 ± 1.10 g/min
same,"CLuptake,liver",[5]; [10],0.40 ± 0.15 mL/min/g
same,Bile0-5min,"[5]; i.v. RSV 5 mg/kg, without DDI",257.57 ± 104.42 µg
same,Bile0-5min/Liver AUC0-5min,"[5]; i.v. RSV 5 mg/kg, without DDI",2.10 ± 0.85 g/min
same,Liver AUC0-5min,"[5]; i.v. RSV 5 mg/kg, without DDI",122384.16 ± 13075.60 ng·min/g
same,Liver Cmax,"[5]; i.v. RSV 5 mg/kg, without DDI",38866.67 ± 3503.67 ng/g
same,"CLint,bile","[5]; i.v. RSV 5 mg/kg, without DDI",2.96 ± 1.50 g/min
same,"CLuptake,liver","[5]; i.v. RSV 5 mg/kg, without DDI",0.84 ± 0.45 mL/min/g
same,"Decrease of RSV CLint,bile in presence of CP","[5]; i.v. RSV, not significant",39.19%
same,"Decrease of RSV CLuptake,liver in presence of CP","[5]; i.v. RSV, not significant",52.38%
same,Decrease of RSV bile0–5min/liver AUC0–5min in presence of CP,"[5]; i.v. RSV, not significant",26.19%
same,Decrease of RSV liver AUC0–5min/plasma AUC0–5min in presence of CP,"[5]; i.v. RSV, not significant",19.77%
same,ALT,rats; [11],54.00 ± 14.17 U/L
same,AST,rats; [11],210.50 ± 36.59 U/L
same,DBIL,rats; [11],1.12 ± 0.11 µmol/L
same,IBIL,rats; [11],0.88 ± 0.18 µmol/L
same,TBIL,rats; [11],2.00 ± 0.22 µmol/L
same,ALT,rats; [12],52.00 ± 6.68 U/L
same,AST,rats; [12],212.50 ± 33.72 U/L
same,DBIL,rats; [12],0.58 ± 0.33 µmol/L
same,IBIL,rats; [12],0.57 ± 0.36 µmol/L
same,TBIL,rats; [12],1.13 ± 0.42 µmol/L
same,Individual contribution of OATP1B1 to hepatic uptake,OATP1B1 [6],0.38
same,Individual contribution of NTCP to hepatic uptake,[7],0.21
